Reference: patent US4188398A, “Method for treating epilepsy” (priority 1978, dated 1980)

Assays:
[1] = Neurotoxicity: rightening, gait, stance, muscle tone and equilibrium tests; assay type: in vivo; conditions: P = 0.05; for TD50: in vivo, read-out: TD50 (mean neurotoxic dose)
Protocol: The neurotoxicity levels were determined by conducting rightening, gait, stance, muscle tone and equilibrium tests.

[2] = Camphor convulsions test; conditions: for ED50: Mus musculus, read-out: ED50 (camphor)
Protocol: (§2) The anticonvulsant action of the proposed preparation was tested on mice weighing 19 to 25 g and rats weighing 120 to 150 g by conducting maximum electroshock, corazol, strychnine, camphor, nicotine and arecoline tests.

[3] = Duration of Nembutal-induced sleep; assay type: in vivo; conditions: for Average Duration of Nembutal-Induced Sleep: P = 0.05, Nembutal 40 mg/kg, proposed preparation 100 mg/kg, zarontin 150 mg/kg, milontin 100 mg/kg
Text: (§1) Nembutal was used as a trunk narcotic, and urethane as a cortical narcotic.

[4] = Acute toxicity, single intraperitoneal administration, 48 hours (Litchfield and Wilcockson); assay type: in vivo, white mice; conditions: intraperitoneal, white mice, P=0.05; for LD50: 2880 min; for LD50 at 48 h: mouse, in vivo, ip
Protocol: The acute toxicity of the proposed preparation was tested on white mice weighing 19 to 20 g, by single intraperitoneal administrations of 1.5- and 10-percent colloidal solutions of the anticonvulsant in a 0.5-percent solution of carboxymethyl cellulose. The animals were observed during 48 hours. In order to establish the median lethal dose (LD50), the experimental data was statistically processed using the Litchfield and Wilcockson techniques. Milontin and zarontin were analyzed in the same way.

[5] = Corazol convulsion test
Protocol: as §2

[6] = Maximum electroshock test
Protocol: as §2

[7] = Duration of urethane-induced sleep; assay type: in vivo; conditions: milontin 100 mg/kg; for Average Duration of Urethane-Induced Sleep: P = 0.05, urethane 1,000 mg/kg, proposed preparation 100 mg/kg, zarontin 150 mg/kg
Text: as §1

[8] = animal or person
Protocol: The general effect of the proposed preparation was tested on white mice, rats and rabbits.

[9] = Clinical comparison in petit mal epilepsy; assay type: in vivo, human (patients)

## CN1C(=O)CC(c2ccccc2)C1=O (stereo not drawn) [Milontin, N-methyl-α-phenylsuccinimide]
[1]
  TD50 (mean neurotoxic dose): 340(278 to 416) mg/kg
  TD50: 340 mg/kg
[2]
  ED50: 99 mg/kg
[2]; camphor
  protection index I=TD50/ED50, Camphor: 3.44
  protection index PI (mean lethal dose / mean effective dose), Camphor: 9.6
[3]
  Average Duration of Nembutal-Induced Sleep: 139.2 ± 33.2 min
[3]; in words
  prolongation of the hypnotic action of Nembutal: statistically significant prolongation
[4]
  LD50: 950 (792 to 1,140) mg/kg
  LD50 at 48 h: 950 mg/kg
[5]; Mus musculus, read-out: ED50 (corazol)
  ED50: 87 mg/kg
[5]; corazol
  protection index I=TD50/ED50, Corazol: 3.91
  protection index PI (mean lethal dose / mean effective dose), Corazol: 10.9
In words
  antistrychnine effect, ranking of the three drugs: at its lowest
strychnine
  ED50 (strychnine): 230 mg/kg
  protection index I=TD50/ED50, Strychnine: 1.47
  protection index PI (mean lethal dose / mean effective dose), Strychnine: 4.14
[6]; Mus musculus, read-out: ED50 (Electroshock)
  ED50: 64 mg/kg
[6]; electroshock
  protection index I=TD50/ED50, Electroshock: 5.3
  protection index PI (mean lethal dose / mean effective dose), Electroshock: 14.85
[6]; in words
  anticonvulsant activity in maximum electroshock test: anticonvulsant activity was only exhibited by the proposed preparation and milontin
[7]
  Average Duration of Urethane-Induced Sleep: 16.5 ± 4.6 min
  prolongation of duration of urethane-induced sleep: more than 3 times

## CCCC(C)C1(CC)C(=O)NC(=O)NC1=O (stereo not shown) [Nembutal]
[3]
  Average Duration of Nembutal-Induced Sleep: 40.8 ± 23.04 min

## CCOC(N)=O [Urethane]
[7]
  Average Duration of Urethane-Induced Sleep: 3.3 ± 1.4 min

## CCC1(C)CC(=O)NC1=O (stereo not drawn) [Zarontin, α-methyl, ethylsuccinimide]
[1]
  TD50 (mean neurotoxic dose): 590(513 to 678) mg/kg
  TD50: 590 mg/kg
[8]; intraperitoneal
  dose inducing sleep: ≥ 900 mg/kg
[8]; mouse, in vivo, ip
  dose causing tremors of the hind extremities: 700 mg/kg
[2]
  ED50: 131 mg/kg
[3]
  Average Duration of Nembutal-Induced Sleep: 76.9 ± 28.9 min
[4]
  LD50: 1,325 (1,200 to 1,462) mg/kg
  LD50 at 48 h: 1320 mg/kg
strychnine
  ED50 (strychnine): 152 mg/kg
[7]
  Average Duration of Urethane-Induced Sleep: 4.7 ± 2.1 min

## CC1(c2ccccc2)CC(=O)N(CN2CCOCC2)C1=O (stereo not shown) [morpholep]
[9]
  patients with improvement: 12 out of 14

## CCC1(C)CC(=O)NC1=O (stereo not shown) [pyknolepsin]
[9]
  patients with improvement: 12 out of 14

## CCC1(C)CC(=O)NC1=O (stereo not shown) [suxilep]
[9]
  patients with improvement: 10 out of 12
